The values below come from patent US20230263822A1, “MODULATION OF FACTOR 11 EXPRESSION” (Ionis Pharmaceuticals, Inc., priority 2008, published 2023).

Strand notation (5' to 3'): a small letter for the sugar, then the base; units joined by * are phosphorothioate-linked, units joined directly phosphodiester-linked; [ ] holds rarer units or linkages, { } end groups; capitals alone tell only the bases. e = 2'-O-(2-methoxyethyl) (MOE); [5mC] = 5-methylcytosine; d = 2'-deoxy (DNA)

For the first data set, the system named is human Factor 11 mRNA. Put plainly: Antisense inhibition of human Factor 11 in HepG2 cells, lipofectin, 75 nM (Example 1). Conditions: 75 nM antisense oligonucleotide, ~24 h, relative to untreated control cells, gapmers targeted to SEQ ID NO: 1. The data set is classed as cell-based. On the procedure: Antisense oligonucleotides targeted to a Factor 11 nucleic acid were tested for their effects on Factor 11 mRNA in vitro. Cultured HepG2 cells at a density of 10,000 cells per well were transfected using lipofectin reagent with 75 nM antisense oligonucleotide. After a treatment period of approximately 24 hours, RNA was isolated from the cells and Factor 11 mRNA levels were measured by quantitative real time PCR. Factor 11 mRNA levels were adjusted according to total RNA content, as measured by RIBOGREEN. Results are presented as percent inhibition of Factor 11, relative to untreated control cells.
The chimeric antisense oligonucleotides in Tables 1 and 2 were designed as 5-10-5 MOE gapmers. The gapmers are 20 nucleotides in length, wherein the central gap segment is comprised of 10 2′-deoxynucleotides and is flanked on both sides (in the 5′ and 3′ directions) by wings comprising 5 nucleotides each. Each nucleotide in the 5′ wing segment and each nucleotide in the 3′ wing segment has a 2′-MOE modification. The internucleoside linkages throughout each gapmer are phosphorothioate (P=S) linkages. All cytidine residues throughout each gapmer are 5-methylcytidines. “Target start site” indicates the 5′-most nucleotide to which the gapmer is targeted. “Target stop site” indicates the 3′-most nucleotide to which the gapmer is targeted. Each gapmer listed in Table 1 is targeted to SEQ TD NO: 1 (GENBANK Accession No. NM_000128.3) and each gapmer listed in Table 2 is targeted to SEQ TD NO: 2 (GENBANK Accession No. NT_022792.17, truncated from 19598000 to 19624000).
Take “412237 (antisense eT*eG*eA*e[5mC]*eT*d[5mC]*dT*dA*d[5mC]*d[5mC]*d[5mC]*d[5mC]*dA*dT*dA*eG*eA*eA*eA*e[5mC]) [compound 412237]”: the % inhibition (in general, the change of the read-out against control, counted positive when it falls) stood at 48%.

Regarding “412244 (antisense eG*eA*eA*eG*eG*d[5mC]*dA*dG*dG*d[5mC]*dA*dT*dA*dT*dG*eG*eG*eT*e[5mC]*eG) [compound 412244]”, the “% inhibition” value turned out to be 53%.

On to “412202 (antisense eT*eT*eG*eG*eT*dG*dT*dG*dA*dG*d[5mC]*dA*dT*dT*dG*e[5mC]*eT*eT*eG*eA) [compound 412202]”, for which the “% inhibition” value came to 65%.

In the case of “412189 (antisense eA*eA*eA*eT*eA*dT*dA*d[5mC]*d[5mC]*dT*dT*dG*dA*dG*dA*eG*eA*eA*eT*eT) [compound 412189]”, the “% inhibition” value is recorded as 8%.

For “412253 (antisense eA*eA*eA*eT*eA*dT*dT*dG*d[5mC]*d[5mC]*dT*dT*dA*dT*dG*eG*eT*eA*eA*eT) [compound 412253]”, the “% inhibition” value amounted to 20%.

With “413495 (antisense eT*eT*eG*eG*e[5mC]*dT*dT*dT*d[5mC]*dT*dG*dG*dA*dG*dA*eG*eT*eA*eT*eT) [compound 413495]”, the “% inhibition” value is given as 58%.

For the substance “413491 (antisense eT*eT*eA*eG*eG*dT*dG*dA*d[5mC]*dT*d[5mC]*dT*dA*d[5mC]*d[5mC]*e[5mC]*e[5mC]*eA*eT*eA) [compound 413491]”, the “% inhibition” value is 73%.

Consider “412249 (antisense e[5mC]*eA*eT*eT*e[5mC]*dA*d[5mC]*dA*d[5mC]*dT*dG*d[5mC]*dT*dT*dG*eA*eG*eT*eT*eT) [compound 412249]”, for which the “% inhibition” value is reported as 55%.

For the substance “412226 (antisense eT*eT*eG*eA*eA*dG*dA*dA*dA*dG*d[5mC]*dT*dT*dT*dA*eA*eG*eT*eA*eA) [compound 412226]”, the “% inhibition” value was 17%.

Regarding “412192 (antisense e[5mC]*eA*eG*e[5mC]*eA*dT*dA*dT*dT*dT*dG*dT*dG*dA*dA*eA*eG*eT*e[5mC]*eG) [compound 412192]”, the “% inhibition” value stood at 44%.

With “412221 (antisense eA*eT*e[5mC]*eA*eG*dT*dG*dT*d[5mC]*dA*dT*dG*dG*dT*dA*eA*eA*eA*eT*eG) [compound 412221]”, the “% inhibition” value stood at 48%.

For “412218 (antisense eA*eA*e[5mC]*e[5mC]*eA*dG*dA*dA*dA*dG*dA*dG*d[5mC]*dT*dT*eT*eG*e[5mC]*eT*e[5mC]) [compound 412218]”, the “% inhibition” value came out at 27%.

In the case of “412261 (antisense eT*e[5mC]*e[5mC]*e[5mC]*eA*dA*dG*dA*dT*dA*dT*dT*dT*dT*dA*eA*eA*eT*eA*eA) [compound 412261]”, the “% inhibition” value stood at 3%.

Take “413462 (antisense eA*eT*e[5mC]*eT*eT*dA*dG*dT*dA*dT*dG*dT*d[5mC]*dA*dG*eA*eA*eA*eT*eA) [compound 413462]”: the “% inhibition” value stood at 12%.

Turning to “412232 (antisense eG*eG*e[5mC]*e[5mC]*eA*d[5mC]*dT*d[5mC]*dA*d[5mC]*d[5mC]*dA*d[5mC]*dG*dA*eA*e[5mC]*eA*eG*eA) [compound 412232]”, the “% inhibition” value worked out at 80%.

As to “412242 (antisense eA*eA*e[5mC]*eA*eA*dG*dG*d[5mC]*dA*dA*dT*dA*dT*d[5mC]*dA*eT*eA*e[5mC]*e[5mC]*e[5mC]) [compound 412242]”, the “% inhibition” value is 49%.

Turning to “412256 (antisense eA*eA*e[5mC]*eA*eA*dA*dT*d[5mC]*dT*dA*dT*dT*dT*dA*dT*eG*eG*eT*eG*eG) [compound 412256]”, the “% inhibition” value stood at 39%.

In the case of “412205 (antisense eG*eT*eT*eT*eA*dT*dG*d[5mC]*d[5mC]*d[5mC]*dT*dT*d[5mC]*dA*dT*eG*eT*e[5mC]*eT*eA) [compound 412205]”, the “% inhibition” value came to 69%.

Turning to “413479 (antisense eT*eG*eT*e[5mC]*eA*dT*dG*dG*dT*dA*dA*dA*dA*dT*dG*eA*eA*eG*eA*eA) [compound 413479]”, the “% inhibition” value came out at 40%.

For “412199 (antisense eT*eT*e[5mC]*eA*e[5mC]*dT*d[5mC]*dT*dT*dG*dG*d[5mC]*dA*dG*dT*eG*eT*eT*eT*e[5mC]) [compound 412199]”, the “% inhibition” value is 66%.

Regarding “412240 (antisense eT*eG*eA*eA*e[5mC]*d[5mC]*d[5mC]*d[5mC]*dA*dA*dA*dG*dA*dA*dA*eG*eA*eT*eG*eT) [compound 412240]”, the “% inhibition” value is reported as 32%.

In the case of “412219 (antisense eG*eG*e[5mC]*eA*eG*dA*dA*d[5mC]*dA*d[5mC]*dT*dG*dG*dG*dA*eT*eG*e[5mC]*eT*eG) [compound 412219]”, the “% inhibition” value is 56%.

As to “412191 (antisense eT*eT*eA*eA*eA*dA*dT*d[5mC]*dT*dT*dA*dG*dT*dA*dT*eG*eT*e[5mC]*eA*eG) [compound 412191]”, the “% inhibition” value was 14%.

Take “413478 (antisense eA*eG*eA*eA*eT*dG*dG*d[5mC]*dA*dG*dA*dA*d[5mC]*dA*d[5mC]*eT*eG*eG*eG*eA) [compound 413478]”: the “% inhibition” value is on record as 53%.

With “412188 (antisense eT*eG*eA*eG*eA*dG*dA*dA*dT*dT*dG*d[5mC]*dT*dT*dG*e[5mC]*eT*eT*eT*e[5mC]) [compound 412188]”, the “% inhibition” value turned out to be 21%.

“413496 (antisense eG*eG*e[5mC]*eA*e[5mC]*dA*dG*dA*dT*d[5mC]*dA*dT*d[5mC]*dT*dT*eA*eT*eG*eG*eG) [compound 413496]”: the “% inhibition” value came out at 72%.

Consider “412209 (antisense eG*eT*eG*e[5mC]*eT*dT*d[5mC]*dA*dG*dT*dA*dG*dA*d[5mC]*dA*eA*eA*eT*eG*eT) [compound 412209]”, for which the “% inhibition” value worked out at 91%.

As for “413475 (antisense eG*e[5mC]*e[5mC]*eA*eT*dT*d[5mC]*d[5mC]*dT*dG*dG*dG*dA*dA*dA*eA*eG*eA*eA*eG) [compound 413475]”, the “% inhibition” value amounted to 80%.

Regarding “413497 (antisense eG*eA*eT*eT*e[5mC]*d[5mC]*dT*dG*d[5mC]*dA*dA*dA*dA*dT*dG*eG*eT*eG*eA*eA) [compound 413497]”, the “% inhibition” value worked out at 39%.

As to “412198 (antisense eT*eT*e[5mC]*eA*eG*dG*dA*d[5mC]*dA*d[5mC]*dA*dA*dG*dT*dA*eA*eA*e[5mC]*e[5mC]*eA) [compound 412198]”, the “% inhibition” value turned out to be 21%.

“412231 (antisense eT*e[5mC]*e[5mC]*eT*eG*dG*dG*d[5mC]*dT*dT*dG*dA*dT*dT*dT*eT*eG*eG*eT*eG) [compound 412231]”: the “% inhibition” value is 74%.

In the case of “412260 (antisense e[5mC]*eA*e[5mC]*eA*eA*dA*dT*d[5mC]*dA*dT*dT*dT*dT*dT*d[5mC]*eA*eG*eG*eA*eA) [compound 412260]”, the “% inhibition” value is given as 27%.

Consider “412238 (antisense e[5mC]*eG*e[5mC]*eA*eA*dA*dA*dT*d[5mC]*dT*dT*dA*dG*dG*dT*eG*eA*e[5mC]*eT*e[5mC]) [compound 412238]”, for which the “% inhibition” value stood at 71%.

For the substance “412254 (antisense eT*eA*eT*e[5mC]*eT*dG*d[5mC]*d[5mC]*dT*dA*dT*dA*dT*dA*dG*eT*eA*eA*eT*e[5mC]) [compound 412254]”, the “% inhibition” value was 16%.

On to “412243 (antisense eT*eT*e[5mC]*e[5mC]*eA*dG*dT*dT*dT*d[5mC]*dA*dA*d[5mC]*dA*dA*eG*eG*e[5mC]*eA*eA) [compound 412243]”, for which the “% inhibition” value was 70%.

The data set is the same for the next values; noted with them: 75 nM antisense oligonucleotide, ~24 h, relative to untreated control cells, gapmers targeted to SEQ ID NO: 2.
“413517 (antisense eA*eA*eA*eG*e[5mC]*dT*dA*dT*dT*dG*dG*dA*dG*dA*d[5mC]*eT*e[5mC]*eA*eG*eA) [compound 413517]”: the “% inhibition” value worked out at 51%.

For “413532 (antisense eA*eG*eG*eG*eA*dA*dT*dA*dA*d[5mC]*dA*dT*dG*dA*dA*eG*eG*e[5mC]*e[5mC]*e[5mC]) [compound 413532]”, the “% inhibition” value is listed as 32%.

Take “413514 (antisense eT*eT*eT*eA*e[5mC]*dT*dA*dT*dG*dA*dA*dA*dA*dT*d[5mC]*eT*eA*eA*eA*eT) [compound 413514]”: the “% inhibition” value came out at 5%.

In the case of “413529 (antisense eT*eG*eT*eG*eT*dG*dG*dG*dT*d[5mC]*d[5mC]*dT*dG*dA*dA*eA*eT*eT*e[5mC]*eT) [compound 413529]”, the “% inhibition” value was found to be 52%.

As for “413522 (antisense eT*e[5mC]*eA*eA*eG*dA*dG*dT*d[5mC]*dT*dT*d[5mC]*dA*dT*dG*e[5mC]*eT*eA*e[5mC]*e[5mC]) [compound 413522]”, the “% inhibition” value was 42%.

For the substance “413523 (antisense eT*e[5mC]*eA*eG*eT*dT*dT*dA*d[5mC]*d[5mC]*dT*dG*dG*dG*dA*eT*eG*e[5mC]*eT*eG) [compound 413523]”, the “% inhibition” value was determined as 61%.

Regarding “413530 (antisense eA*eT*e[5mC]*eT*eT*dG*dT*dA*dA*dT*dT*dA*d[5mC]*dA*d[5mC]*eA*e[5mC]*e[5mC]*e[5mC]*e[5mC]) [compound 413530]”, the “% inhibition” value is 27%.

Consider “413511 (antisense eT*eG*e[5mC]*e[5mC]*eA*dA*dT*dT*dT*dA*dA*dA*dA*dG*dT*eG*eT*eA*eG*e[5mC]) [compound 413511]”, for which the “% inhibition” value is recorded as 43%.
